Literature values as cited in US20170368079A1, “ANTI-INFLAMMATORY AND ANTIDIABETIC AGENTS” (priority 2016, published 2017).
Read-outs that look alike come from different tables or passages of the source.

Legend:
[1] = test system: glucocorticoid metabolism; conditions: mice; pattern differs between liver and subcutaneous adipose tissue
[2] = test system: platelet aggregation; conditions: unlike aspirin
[3] = test system: prostaglandin synthesis; conditions: in vivo; compared with aspirin and indomethacin
[4] = test system: patients with type 2 diabetes
[5] = test system: glucocorticoid metabolism; conditions: humans; pattern differs between liver and subcutaneous adipose tissue
[6] = compared with placebo, in contrast to aspirin

What does the source list for `O=C(Oc1ccccc1C(=O)O)c1ccccc1O` [salsalate, 2-(2-hydroxybenzoyl)oxybenzoic acid]?
glucocorticoid metabolism [1]: alters glucocorticoid metabolism; inhibition of platelet aggregation [2]: does not inhibit platelet aggregation; anti-inflammatory activity [3]: equivalent to aspirin and indomethacin; C-reactive protein [4]: lowers; HbA1c levels [4]: lowers; adiponectin concentrations [4]: increase; blood glucose [4]: lowers; circulating insulin [4]: increase; free fatty acid [4]: lowers; glucose utilization [4]: improve; triglycerides [4]: lowers; glucocorticoid metabolism [5]: alters glucocorticoid metabolism; fecal gastrointestinal blood loss [6]: no greater fecal gastrointestinal blood loss than placebo
